Laboratory results as given in patent US20250114338A1, “TETRAHYDRO-PYRIDO[3,4-b]INDOLE ESTROGEN RECEPTOR MODULATORS AND USES THEREOF” (Genentech, Inc., priority 2014, published 2025).

Test system: ER-alpha MCF7
Assay: ER-alpha MCF7 HCS EC50; stated as measured by in vitro cell proliferation assays of Examples 902 and 903
Format: cell-based
Settings: Homo sapiens, MCF7, MCF7 cells; Table 2
In short: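 MCF7 cells seeded 1000-2000 cells/well for 16 h, then treated with nine-point 1:2 DMSO dilution series in quadruplicate at 37 °C, 5% CO2 for 4 days. Viable cells quantified by CellTiter-Glo ATP luminescence; EC50 calculated. Controls: fulvestrant at final 100 nM, DMSO 0.2% v/v.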

Row | Compound | EC50
1 | C[C@@H]1Cc2c([nH]c3ccccc23)[C@@H](c2ccc(NCCN3CC(CF)C3)cc2F)N1CC(C)(F)CO (stereo partly drawn) [Example 327, 2-fluoro-3-((1R,3R)-1-(2-fluoro-4-((2-(3-(fluoromethyl)azetidin-1-yl)ethyl)amino)phenyl)-3-methyl-1,3,4,9-tetrahydro-2H-pyrido[3,4-b]indol-2-yl)-2-methylpropan-1-ol] | 0.347 nM
2 | C[C@@H]1Cc2c([nH]c3ccccc23)[C@@H](c2ccc(NCCN3CC(CF)C3)cc2)N1CC(C)(F)CO (stereo partly drawn) [Example 328, 2-fluoro-3-((1R,3R)-1-(4-((2-(3-(fluoromethyl)azetidin-1-yl)ethyl)amino)phenyl)-3-methyl-1,3,4,9-tetrahydro-2H-pyrido[3,4-b]indol-2-yl)-2-methylpropan-1-ol] | 0.167 nM
3 | C[C@@H]1Cc2c([nH]c3ccccc23)[C@@H](c2ccc(OCCN3CC(CF)C3)cc2)N1S(=O)(=O)N(C)C [Example 329, (1R,3R)-1-[4-[2-[3-(fluoromethyl)azetidin-1-yl]ethoxy]phenyl]-N,N,3-trimethyl-1,3,4,9-tetrahydropyrido[3,4-b]indole-2-sulfonamide] | 1 nM
4 | C[C@@H]1Cc2c([nH]c3ccccc23)[C@@H](c2ccc(OC3CN(CCCF)C3)cc2)N1S(C)(=O)=O [Example 330, (1R,3R)-1-[4-[1-(3-fluoropropyl)azetidin-3-yl]oxyphenyl]-3-methyl-2-methylsulfonyl-1,3,4,9-tetrahydropyrido[3,4-b]indole] | 2 nM
5 | C[C@@H]1Cc2c([nH]c3ccccc23)[C@@H](c2c(F)cc(OC3CN([C@H]4C[C@H](O)C4)C3)cc2F)N1CC(C)(C)F [Example 331, 3-[3-[3,5-difluoro-4-[(1R,3R)-2-(2-fluoro-2-methyl-propyl)-3-methyl-1,3,4,9-tetrahydropyrido[3,4-b]indol-1-yl]phenoxy]azetidin-1-yl]cyclobutanol] | 0.236 nM
6 | CC(C)[S@+]([O-])N1[C@H](c2ccc(OCCN3CC(CF)C3)cc2)c2[nH]c3ccccc3c2C[C@H]1C [Example 332, (1R,3R)-1-(4-(2-(3-(fluoromethyl)azetidin-1-yl)ethoxy)phenyl)-2-((S)-isopropylsulfinyl)-3-methyl-2,3,4,9-tetrahydro-1H-pyrido[3,4-b]indole] | 8 nM
7 | CC(C)[S@@+]([O-])N1[C@H](c2ccc(OCCN3CC(CF)C3)cc2)c2[nH]c3ccccc3c2C[C@H]1C [Example 333, (1R,3R)-1-(4-(2-(3-(fluoromethyl)azetidin-1-yl)ethoxy)phenyl)-2-((R)-isopropylsulfinyl)-3-methyl-2,3,4,9-tetrahydro-1H-pyrido[3,4-b]indole] | 48 nM
8 | C[C@@H]1Cc2c([nH]c3ccccc23)[C@@H](c2c(F)cc(OC3CN([C@H]4C[C@@H](O)C4)C3)cc2F)N1CC(C)(C)F [Example 334, (1S,3s)-3-(3-(3,5-difluoro-4-((1R,3R)-2-(2-fluoro-2-methylpropyl)-3-methyl-2,3,4,9-tetrahydro-1H-pyrido[3,4-b]indol-1-yl)phenoxy)azetidin-1-yl)cyclobutanol] | 0.13 nM
9 | C[C@@H]1Cc2c([nH]c3ccccc23)[C@@H](c2c(F)cc(OC3CN(CCCCCF)C3)cc2F)N1CC(C)(C)F [Example 335, (1R,3R)-1-[2,6-difluoro-4-[1-(5-fluoropentyl)azetidin-3-yl]oxy-phenyl]-2-(2-fluoro-2-methyl-propyl)-3-methyl-1,3,4,9-tetrahydropyrido[3,4-b]indole] | 0.442 nM
10 | C[C@@H]1Cc2c([nH]c3ccccc23)[C@@H](c2cc(F)c(OC3CN(CCCF)C3)c(F)c2)N1CC(C)(C)F [Example 336, (1R,3R)-1-[3,5-difluoro-4-[1-(3-fluoropropyl)azetidin-3-yl]oxy-phenyl]-2-(2-fluoro-2-methyl-propyl)-3-methyl-1,3,4,9-tetrahydropyrido[3,4-b]indole] | 0.263 nM
11 | C[C@@H]1Cc2c([nH]c3ccccc23)[C@@H](c2c(F)cc(OC3CN(CCCCF)C3)cc2F)N1CC(C)(C)F [Example 337, (1R,3R)-1-[2,6-difluoro-4-[1-(4-fluorobutyl)azetidin-3-yl]oxy-phenyl]-2-(2-fluoro-2-methyl-propyl)-3-methyl-1,3,4,9-tetrahydropyrido[3,4-b]indole] | 0.387 nM
12 | C[C@@H]1Cc2c([nH]c3ccccc23)[C@@H](c2cc(F)c(OC3CN(CCCCCF)C3)c(F)c2)N1CC(C)(C)F [Example 338, (1R,3R)-1-[3,5-difluoro-4-[1-(5-fluoropentyl)azetidin-3-yl]oxy-phenyl]-2-(2-fluoro-2-methyl-propyl)-3-methyl-1,3,4,9-tetrahydropyrido[3,4-b]indole] | 1 nM
13 | C[C@@H]1Cc2c([nH]c3ccccc23)[C@@H](c2cc(F)c(OC3CN(CCCF)C3)cc2F)N1CC(C)(C)F [Example 339, (1R,3R)-1-[2,5-difluoro-4-[1-(3-fluoropropyl)azetidin-3-yl]oxy-phenyl]-2-(2-fluoro-2-methyl-propyl)-3-methyl-1,3,4,9-tetrahydropyrido[3,4-b]indole] | 1 nM
14 | C[C@@H]1Cc2c([nH]c3ccccc23)[C@@H](c2c(F)cc(NC3CN(CCCF)C3)cc2F)N1CC(F)(F)CO [Example 340, 3-[(1R,3R)-1-[2,6-difluoro-4-[[1-(3-fluoropropyl)azetidin-3-yl]amino]phenyl]-3-methyl-1,3,4,9-tetrahydropyrido[3,4-b]indol-2-yl]-2,2-difluoro-propan-1-ol] | 0.203 nM
15 | C[C@@H]1Cc2c([nH]c3ccccc23)[C@@H](c2cnc(OC3CN(CCCF)C3)cn2)N1CC(C)(C)F [Example 342, (1S,3R)-2-(2-fluoro-2-methylpropyl)-1-(5-((1-(3-fluoropropyl)azetidin-3-yl)oxy)pyrazin-2-yl)-3-methyl-2,3,4,9-tetrahydro-1H-pyrido[3,4-b]indole] | 0.619 nM
16 | C[C@@H]1Cc2c([nH]c3ccccc23)[C@@H](c2c(F)cc(OC3(C)CN(CCCF)C3)cc2F)N1CC(C)(C)F [Example 343, (1R,3R)-1-(2,6-difluoro-4-((1-(3-fluoropropyl)-3-methylazetidin-3-yl)oxy)phenyl)-2-(2-fluoro-2-methylpropyl)-3-methyl-2,3,4,9-tetrahydro-1H-pyrido[3,4-b]indole] | 0.2 nM
17 | C[C@@H]1Cc2c([nH]c3ccccc23)[C@@H](c2ccc(OC3CN(CCCF)C3)cc2C#N)N1CC(C)(C)F [Example 344, 2-[(1R,3R)-2-(2-fluoro-2-methyl-propyl)-3-methyl-1,3,4,9-tetrahydropyrido[3,4-b]indol-1-yl]-5-[1-(3-fluoropropyl)azetidin-3-yl]oxy-benzonitrile] | 0.347 nM
18 | C[C@@H]1Cc2c([nH]c3ccccc23)[C@@H](c2ccn(CCCN3CC(CF)C3)c(=O)c2)N1CC(C)(C)F [Example 345, 4-((1R,3R)-2-(2-fluoro-2-methylpropyl)-3-methyl-2,3,4,9-tetrahydro-1H-pyrido[3,4-b]indol-1-yl)-1-(3-(3-(fluoromethyl)azetidin-1-yl)propyl)pyridin-2(1H)-one] | 12.3 nM
19 | C[C@@H]1Cc2c([nH]c3ccccc23)[C@@H](c2ccc(C(=O)C3CN(CCCF)C3)cc2)N1CC(C)(C)F [Example 346, [4-[(1R,3R)-2-(2-fluoro-2-methyl-propyl)-3-methyl-1,3,4,9-tetrahydropyrido[3,4-b]indol-1-yl]phenyl]-[1-(3-fluoropropyl)azetidin-3-yl]methanone] | 0.399 nM
